Source: patent US6713260B2, “Methods of identifying compounds that bind to target species under isothermal denaturing conditions” (Pharmacia & Upjohn Company, priority 1999, dated 2004)
Each block holds one compound with its values, some of them ahead of it.

Tests used:
Stromelysin [1] = molecular target: T1, Stromelysin (Homo sapiens, UniProt P08254); experiment: Isothermal denaturation of stromelysin monitored by SYPRO Orange fluorescence; format: binding; conditions: 75° C.
T1 construct: made in house
T1 sequence (P08254 100-264 limits assumed): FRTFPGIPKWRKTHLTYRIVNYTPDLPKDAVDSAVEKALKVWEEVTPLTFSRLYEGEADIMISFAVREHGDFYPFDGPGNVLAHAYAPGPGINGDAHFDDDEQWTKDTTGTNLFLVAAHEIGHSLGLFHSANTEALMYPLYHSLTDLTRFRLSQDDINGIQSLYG
Description: Time-Dependency of the isothermal denaturation of Stromelysin monitored by SYPRO Orange Fluorescence. […] The data for the control reaction were analyzed using Equation 4, and those for the inhibited reactions with Equation 11. […] The solid lines represent the theoretical fits to the experimental data points.
The time-dependencies of the fluorescence of extrinsic dyes during isothermal denaturation were monitored as follows. The test dye was added to a stirred cuvette containing 2 milliliters (mL) of buffer that had been thermally preequilibrated at the desired temperature. A dye baseline was recorded for 45 seconds and the denaturation reaction initiated by the addition of a small aliquot of the protein stock solution. In this way, the protein reached the temperature of denaturation virtually instantaneously. In separate experiments, the protein was kept at the denaturation temperature in the absence of dye and the reporter molecule added at the end of the reaction. In the latter experiments, the fluorescence increase associated with the addition of dye was always instantaneous.
Two parameters derived from the fluorescence kinetic curves measure the rate of denaturation, namely, the slope at the inflection point, and the first-order rate constant.

Stromelysin [2] = molecular target: T1, Stromelysin; experiment: Isothermal denaturation of stromelysin monitored by UV absorbance (hyperchromicity at 280 nm); format: binding; conditions: 75° C.; absorbance at 280 nm
Description: Sci., 7; 2118-2126 (1998).
UV absorbance was measured using a Perkin-Elmer Lambda 40 UV-Vis dual-beam spectrophotometer (Perkin-Elmer Corp. Norwalk, Conn.). A capped 1.0 cm pathlength quartz cuvette filled with buffer was placed in the reference beam. In the sample beam, a capped 1.0 cm path length quartz cuvette containing 1.5 mL of degassed buffer or buffer plus ligand—less the volume of protein solution to be added—was placed in a thermostated cell holder and equilibrated at the temperature of isothermal denaturation. The temperature was maintained within 0.1° C. using a Neslab Exacal EX200 circulating water bath (Neslab Instruments, Inc. Portsmouth, N.H.). A 1-5 μL aliquot of the protein stock solution was added to the cuvette containing buffer or buffer plus ligand to yield a final volume of 1.5 mL and protein concentration near 0.5 μM. The cuvette was recapped and absorbance at 280 nm was measured every 1 second for up to 30 minutes with a bandwidth of 2 nm and response of 0.5 second. For each protein, the effects of several ligand concentrations were examined ranging from about 0.5 μM to about 400 μM. Cuvettes were thoroughly cleaned as described above with nitric acid and with 10% methanol and rinsed with distilled water and ethanol between experiments.
Absorbance. […]

[3] = molecular target: T2, S. aureus uridylate kinase (UK) (Staphylococcus aureus, UniProt Q2FZ22); experiment: Robotic HTS isothermal denaturation assay, uridylate kinase, Nano Orange
T2 sequence (Q2FZ22 1-240): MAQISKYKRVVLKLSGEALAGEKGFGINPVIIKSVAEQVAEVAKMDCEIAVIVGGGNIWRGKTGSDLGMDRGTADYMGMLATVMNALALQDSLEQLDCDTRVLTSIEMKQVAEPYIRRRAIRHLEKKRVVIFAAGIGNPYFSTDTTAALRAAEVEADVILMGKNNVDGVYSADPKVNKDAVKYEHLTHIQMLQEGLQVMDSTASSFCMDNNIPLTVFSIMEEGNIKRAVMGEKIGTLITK
Description: Temperature was controlled with a circulating waterbath.
Validation of Robotic HTS Assay.

uridylate kinase (UK) = molecular target: T3, uridylate kinase (UK) (Staphylococcus aureus, UniProt Q2FZ22); experiment: Uridylate kinase activity assay at 25° C.; format: biochemical, S. aureus; conditions: read-out: apparent Kd obtained from an activity assay
T3 construct: 6-his tag (implied by Ni-NTA purification); made in house
T3 sequence (Q2FZ22 1-240): T2 sequence (Q2FZ22 1-240)

[4] = molecular target: T4, S. aureus thymidylate kinase (TK) (Staphylococcus aureus, UniProt P65248); experiment: biochemical; format: binding
T4 construct: 6-his tag; made in house

effect on denaturation of stromelysin (Stromelysin [1]): inhibited in a dose-dependent manner
Structure (SMILES): CNC(=O)[C@H](Cc1ccc(O)cc1)NC(=O)Nc1n[nH]c(=S)s1 [PNU-143988]
effect on hyperchromicity changes (Stromelysin [2]): dose-dependent inhibition of both the rate and magnitude

Structure (SMILES): O=c1ccn([C@@H]2O[C@H](COP(=O)(O)O)[C@@H](O)[C@H]2O)c(=O)[nH]1 [UMP, uridine monophosphate]
Kd [3]: 5.76 ± 0.95 mM
effect on denaturation ([3]; 41° C., 96-well microplate, robotic): concentration-dependent
Kd (uridylate kinase (UK)): 1 mM

Structure (SMILES): Cc1cn([C@H]2C[C@H](O)[C@@H](COP(=O)(O)O)O2)c(=O)[nH]c1=O [TMP, Thymidine monophosphate]
Kd ([4]; Kd calculated from the rate constants): 7.6 ± 0.8 mM
Kd ([4]; Kd calculated from the slopes): 9.1 ± 1.6 mM
